Results as given in ChEMBL document CHEMBL5113532, “Design and Characterization of a Natural Arf-GEFs Inhibitor Prodrug CHNQD-01255 with Potent Anti-Hepatocellular Carcinoma Efficacy In Vivo” (J Med Chem, 2022).
Converted amounts (≈) assume the structure as drawn. One block for each compound: values may come before it.

What was measured:
HepG2 = assay: Antiproliferative activity against human HepG2 cells by MTT assay; assay type: functional, cell-based
Bel-7402 = assay: Antiproliferative activity against human Bel-7402 cells by MTT assay; assay type: functional, cell-based
[1] = Solubility of the compound in saline/PEG400 (80/20% V/V) at pH 7.4; assay type: physicochemical
[2] = AUC (0 to t) in ICR mouse at 45 mg/kg, po measured after 0.083 to 12 hrs by UPLC-MS/MS analysis; assay type: ADME, organism-based; design: dose 45 mg/kg, time upper 12 hrs, time lower 0.083 hrs, route po; details: in vivo
[3] = Solubility of the compound in saline/solutol HS-15 (90/10% V/V) at pH 7.4; assay type: physicochemical
[4] = Apparent volume of distribution in ICR mouse at 45 mg/kg, po measured after 0.083 to 12 hrs by UPLC-MS/MS analysis; assay type: ADME, organism-based; details: in vivo, time 0.083-12 hrs
[5] = Solubility of the compound in saline/solutol HS-15 (95/5% V/V) at pH 7.4; assay type: physicochemical
[6] = Cmax in ICR mouse at 45 mg/kg, po measured after 0.083 to 12 hrs by UPLC-MS/MS analysis; assay type: ADME, organism-based; design: dose 45 mg/kg, time upper 12 hrs, time lower 0.083 hrs, route po; details: in vivo
[7] = Solubility of the compound in saline/DMSO (95/5% V/V) at pH 7.4; assay type: physicochemical
[8] = Clearance in ICR mouse at 10 mg/kg, iv measured after 0.083 to 12 hrs by UPLC-MS/MS analysis; assay type: ADME, organism-based; details: in vivo, time 0.083-12 hrs
[9] = Cmax in ICR mouse at 10 mg/kg, iv measured after 0.083 to 12 hrs by UPLC-MS/MS analysis; assay type: ADME, organism-based; design: time 0.083-12 hrs, dose 10 mg/kg, route iv; details: in vivo
[10] = Solubility of the compound in 0.9% NaCl at pH 7.4; assay type: physicochemical
[11] = Solubility of the compound in PBS/DMSO (95/5% V/V) at pH 7.2 to 7.4; assay type: physicochemical
[12] = Acute toxicity in ip dosed ICR mouse assessed as maximum tolerated dose; assay type: organism-based; details: in vivo
[13] = Solubility of the compound in saline/PEG400 (95/5% V/V) at pH 7.4; assay type: physicochemical
[14] = MRT (0 to t) in ICR mouse at 10 mg/kg, iv measured after 0.083 to 12 hrs by UPLC-MS/MS analysis; assay type: ADME, organism-based; details: in vivo, time 0.083-12 hrs
[15] = Half life in ICR mouse at 10 mg/kg, iv measured after 0.083 to 12 hrs by UPLC-MS/MS analysis; assay type: ADME, organism-based; details: in vivo, time 0.083-12 hrs
[16] = MRT (0 to t) in ICR mouse at 45 mg/kg, po measured after 0.083 to 12 hrs by UPLC-MS/MS analysis; assay type: ADME, organism-based; details: in vivo, time 0.083-12 hrs
[17] = Acute toxicity in po dosed ICR mouse assessed as maximum tolerated dose; assay type: organism-based; details: in vivo
[18] = Solubility of the compound in saline/DMSO/solutol HS-15 (85/5/10% V/V/V) at pH 7.4; assay type: physicochemical
[19] = Clearance in ICR mouse at 45 mg/kg, po measured after 0.083 to 12 hrs by UPLC-MS/MS analysis; assay type: ADME, organism-based; details: in vivo, time 0.083-12 hrs
[20] = AUC(0 to t) in ICR mouse at 10 mg/kg, iv measured after 0.083 to 12 hrs by UPLC-MS/MS analysis; assay type: ADME, organism-based; design: time upper 12 hrs, dose 10 mg/kg, time lower 0.083 hrs, route iv; details: in vivo
[21] = Apparent volume of distribution in ICR mouse at 10 mg/kg, iv measured after 0.083 to 12 hrs by UPLC-MS/MS analysis; assay type: ADME, organism-based; details: in vivo, time 0.083-12 hrs, read-out: Vz
[22] = Oral bioavailability in ICR mouse at 45 mg/kg measured after 0.083 to 12 hrs by UPLC-MS/MS analysis; assay type: ADME, organism-based; details: in vivo, time 0.083-12 hrs
[23] = Half life in ICR mouse at 45 mg/kg, po measured after 0.083 to 12 hrs by UPLC-MS/MS analysis; assay type: ADME, organism-based; details: in vivo, time 0.083-12 hrs

SMILES: COC(=O)O[C@@H]1C[C@H]2[C@H](O)/C=C/C(=O)O[C@@H](C)CCC/C=C/[C@@H]2C1
- IC50 (HepG2): > 1000 nM

SMILES: C[C@H]1CCC/C=C/[C@@H]2C[C@H](OC(=O)OCc3cccnc3)C[C@H]2[C@H](OC(=O)OCc2cccnc2)/C=C/C(=O)O1
- IC50 (HepG2): > 1000 nM
- IC50 (Bel-7402): 430 nM

SMILES: COc1ccc(COC(=O)O[C@@H]2C[C@H]3[C@H](O)/C=C/C(=O)O[C@@H](C)CCC/C=C/[C@@H]3C2)cn1
- IC50 (HepG2): > 1000 nM

SMILES: C[C@H]1CCC/C=C/[C@@H]2C[C@H](OC(=O)OCc3cncc(F)c3)C[C@H]2[C@H](O)/C=C/C(=O)O1
- IC50 (HepG2): > 1000 nM

SMILES: C[C@H]1CCC/C=C/[C@@H]2C[C@H](OC(=O)OCc3ccccn3)C[C@H]2[C@H](O)/C=C/C(=O)O1
- IC50 (HepG2): > 1000 nM

SMILES: C[C@H]1CCC/C=C/[C@@H]2C[C@H](OC(=O)c3ccncc3)C[C@H]2[C@H](OC(=O)c2ccncc2)/C=C/C(=O)O1
- IC50 (HepG2): > 1000 nM

SMILES: C[C@H]1CCC/C=C/[C@@H]2C[C@H](O)C[C@H]2[C@H](OC(=O)c2cncc(F)c2)/C=C/C(=O)O1
- IC50 (HepG2): 930 nM

SMILES: C[C@H]1CCC/C=C/[C@@H]2C[C@H](OC(=O)OCc3cnc4ccccc4c3)C[C@H]2[C@H](O)/C=C/C(=O)O1
- IC50 (HepG2): > 1000 nM

SMILES: C[C@H]1CCC/C=C/[C@@H]2C[C@H](OC(=O)OCCc3cccnc3)C[C@H]2[C@H](O)/C=C/C(=O)O1
- IC50 (HepG2): 850 nM
- IC50 (Bel-7402): > 1000 nM

SMILES: C[C@H]1CCC/C=C/[C@@H]2C[C@H](O)C[C@H]2[C@H](O)/C=C/C(=O)O1 [BREFELDIN A]
- solubility [1]: < 1000 µg/mL
- AUC(0-t) [2]: 4130 ng·h/mL
- solubility [3]: < 1000 µg/mL
- Vz [4]: 31.87132 L/kg
- solubility [5]: < 1000 µg/mL
- Cmax [6]: 7140 ng/mL
- solubility [7]: < 1000 µg/mL
- clearance [8]: 26.3 mL/min/kg
- Cmax [9]: 13200 ng/mL
- solubility [10]: < 1000 µg/mL
- solubility [11]: < 1000 µg/mL
- MTD [12]: < 50 mg/kg
- solubility [13]: < 1000 µg/mL
- IC50 (HepG2): 80 nM
- MRT last [14]: 0.84 h
- half-life [15]: 9.05 h
- MRT last [16]: 1.4 h
- MTD [17]: < 506 mg/kg
- solubility [18]: 1000 µg/mL (≈ 3.57 mM)
- CL/F [19]: 173 mL/min/kg
- AUC(0-t) [20]: 4840 ng·h/mL
- Vd [21]: 20.6 L/kg
- IC50 (Bel-7402): 70 nM
- bioavailability [22]: 19%
- half-life [23]: 2.12 h

SMILES: C[C@H]1CCC/C=C/[C@@H]2C[C@H](OC(=O)c3cncc(F)c3)C[C@H]2[C@H](OC(=O)c2cncc(F)c2)/C=C/C(=O)O1
- IC50 (HepG2): > 1000 nM

SMILES: C[C@H]1CCC/C=C/[C@@H]2C[C@H](OC(=O)OCc3ccncc3)C[C@H]2[C@H](O)/C=C/C(=O)O1
- IC50 (HepG2): > 1000 nM
- IC50 (Bel-7402): > 1000 nM

SMILES: COc1cccc2c1C(=O)c1c(O)c3c(c(O)c1C2=O)C[C@@](O)(C(=O)CO)C[C@@H]3O[C@H]1C[C@H](N)[C@H](O)[C@H](C)O1 [DOXORUBICIN]
- IC50 (HepG2): 390 nM
- IC50 (Bel-7402): > 1000 nM

Other lines, results leading:

- IC50 (HepG2): > 1000 nM
- IC50 (Bel-7402): > 1000 nM
SMILES: C[C@H]1CCC/C=C/[C@@H]2C[C@H](OC(=O)CN(C)C)C[C@H]2[C@H](O)/C=C/C(=O)O1

- IC50 (HepG2): > 1000 nM
SMILES: C[C@H]1CCC/C=C/[C@@H]2C[C@H](OC(=O)NCc3ccncc3)C[C@H]2[C@H](O)/C=C/C(=O)O1

- IC50 (HepG2): 460 nM
SMILES: C[C@H]1CCC/C=C/[C@@H]2C[C@H](OC(=O)c3ccncc3)C[C@H]2[C@H](O)/C=C/C(=O)O1

- IC50 (HepG2): > 1000 nM
SMILES: C[C@H]1CCC/C=C/[C@@H]2C[C@H](OC(=O)NCc3cccnc3)C[C@H]2[C@H](O)/C=C/C(=O)O1

- IC50 (HepG2): > 1000 nM
- IC50 (Bel-7402): 270 nM
SMILES: C[C@H]1CCC/C=C/[C@@H]2C[C@H](O)C[C@H]2[C@H](OC(=O)OCc2cccnc2)/C=C/C(=O)O1

- IC50 (HepG2): > 1000 nM
SMILES: C[C@H]1CCC/C=C/[C@@H]2C[C@H](OC(=O)OCCS)C[C@H]2[C@H](O)/C=C/C(=O)O1

- IC50 (HepG2): > 1000 nM
SMILES: C[C@H]1CCC/C=C/[C@@H]2C[C@H](OC(=O)OCCSSCCO)C[C@H]2[C@H](O)/C=C/C(=O)O1

- IC50 (HepG2): > 1000 nM
SMILES: C[C@H]1CCC/C=C/[C@@H]2C[C@H](OC(=O)Nc3ccccc3)C[C@H]2[C@H](O)/C=C/C(=O)O1

- IC50 (HepG2): > 1000 nM
SMILES: Cc1cncc(C(=O)O[C@@H]2C[C@H]3[C@H](O)/C=C/C(=O)O[C@@H](C)CCC/C=C/[C@@H]3C2)c1

- IC50 (HepG2): > 1000 nM
- IC50 (Bel-7402): > 1000 nM
SMILES: C[C@H]1CCC/C=C/[C@@H]2C[C@H](OC(=O)c3cccnc3)C[C@H]2[C@H](OC(=O)c2cccnc2)/C=C/C(=O)O1

- IC50 (HepG2): 290 nM
SMILES: C[C@H]1CCC/C=C/[C@@H]2C[C@H](OC(=O)c3ccccn3)C[C@H]2[C@H](O)/C=C/C(=O)O1

- IC50 (HepG2): 960 nM
SMILES: C[C@H]1CCC/C=C/[C@@H]2C[C@H](O)C[C@H]2[C@H](OC(=O)c2ccccn2)/C=C/C(=O)O1

- IC50 (HepG2): > 1000 nM
SMILES: C[C@H]1CCC/C=C/[C@@H]2C[C@H](OC(=O)NCc3ccccc3)C[C@H]2[C@H](O)/C=C/C(=O)O1

- solubility [1]: < 1000 µg/mL
- solubility [3]: < 1000 µg/mL
- solubility [5]: < 1000 µg/mL
- solubility [7]: < 1000 µg/mL
- solubility [10]: < 1000 µg/mL
- solubility [11]: < 1000 µg/mL
- solubility [13]: < 1000 µg/mL
- IC50 (HepG2): 950 nM
- solubility [18]: 3000 µg/mL (≈ 7.78 mM)
- IC50 (Bel-7402): 390 nM
SMILES: C[C@H]1CCC/C=C/[C@@H]2C[C@H](OC(=O)c3cccnc3)C[C@H]2[C@H](O)/C=C/C(=O)O1

- IC50 (HepG2): 680 nM
SMILES: C[C@H]1CCC/C=C/[C@@H]2C[C@H](OC(=O)c3cncc(F)c3)C[C@H]2[C@H](O)/C=C/C(=O)O1

- IC50 (HepG2): > 1000 nM
- IC50 (Bel-7402): 270 nM
SMILES: C[C@H]1CCC/C=C/[C@@H]2C[C@H](O)C[C@H]2[C@H](OC(=O)c2cccnc2)/C=C/C(=O)O1

- IC50 (HepG2): > 1000 nM
SMILES: C[C@H]1CCC/C=C/[C@@H]2C[C@H](OC(=O)NCCO)C[C@H]2[C@H](O)/C=C/C(=O)O1

- IC50 (HepG2): 340 nM
SMILES: C[C@H]1CCC/C=C/[C@@H]2C[C@H](OC(=O)c3ccccn3)C[C@H]2[C@H](OC(=O)c2ccccn2)/C=C/C(=O)O1

- IC50 (HepG2): 650 nM
SMILES: C[C@H]1CCC/C=C/[C@@H]2C[C@H](O)C[C@H]2[C@H](OC(=O)c2ccncc2)/C=C/C(=O)O1

- IC50 (HepG2): > 1000 nM
SMILES: Cc1cncc(C(=O)O[C@@H]2/C=C/C(=O)O[C@@H](C)CCC/C=C/[C@@H]3C[C@H](O)C[C@H]32)c1
